Measured values as given in ChEMBL document CHEMBL1155776, “Effect of fluoroquinolone treatment on growth of and toxin production by epidemic and nonepidemic clostridium difficile strains in the cecal contents of mice” (Antimicrob Agents Chemother, 2007).
Active and inactive are the calls of the source.

Experiments:
Clostridioides difficile [1] = assay: Antimicrobial activity against nonepidemic Clostridium difficile ATCC 9689 by broth dilution method; format: functional
Clostridioides difficile [2] = assay: Antimicrobial activity against nonepidemic Clostridium difficile J29 by broth dilution method; format: functional
Clostridioides difficile [3] = assay: Antimicrobial activity against epidemic Clostridium difficile BI9 by broth dilution method; format: functional
Clostridioides difficile [4] = assay: Antimicrobial activity against epidemic Clostridium difficile BI6-8-17 by broth dilution method; format: functional
Clostridioides difficile [5] = assay: Antimicrobial activity against fluoroquinolone-resistant epidemic Clostridium difficile NAP1 by broth dilution method; format: functional
Clostridioides difficile [6] = assay: Antimicrobial activity against fluoroquinolone-susceptible nonepidemic Clostridium difficile strain6 by broth dilution method; format: functional
[7] = Drug level in Clostridium difficile infected CF1 mouse stool at 0.375 mg/day for 4 days; format: ADME; conditions: read-out: Drug uptake
Clostridioides difficile [8] = assay: Increase in toxin level in epidemic Clostridium difficile BI6-8-17 infected CF1 mouse at 1.4 mg/day, sc for 4 days assessed after 2 days of last treatment; format: functional, organism-based
Clostridioides difficile [9] = assay: Increase in toxin level in nonepidemic Clostridium difficile ATCC 9689 infected in CF1 mouse at 0.2 mg/day, sc for 4 days assessed after 2 days of last treatment; format: functional, organism-based
Clostridioides difficile [10] = assay: Increase in toxin level in nonepidemic Clostridium difficile J29 infected CF1 mouse at 0.2 mg/day, sc for 4 days assessed after 2 days of last treatment; format: functional, organism-based
Clostridioides difficile [11] = assay: Increase in toxin level in epidemic Clostridium difficile BI9 infected CF1 mouse at 0.2 mg/day, sc for 4 days assessed after 2 days of last treatment; format: functional, organism-based
Clostridioides difficile [12] = assay: Increase in toxin level in epidemic Clostridium difficile BI6-8-17 infected CF1 mouse at 0.2 mg/day, sc for 4 days assessed after 2 days of last treatment; format: functional, organism-based
[13] = Drug level in Clostridium difficile infected CF1 mouse stool at 0.2 mg/day for 4 days; format: ADME; conditions: read-out: Drug uptake
Clostridioides difficile [14] = assay: Effect on growth of epidemic Clostridium difficile BI9 in CF1 mouse assessed as increase in bacterial density in cecal content at 0.4 mg/day, sc for 4 days assessed after 2 days of last treatment; format: functional, organism-based
Clostridioides difficile [15] = assay: Increase in toxin level in nonepidemic Clostridium difficile ATCC 9689 infected in CF1 mouse at 2 mg/day, sc for 4 days assessed after 2 days of last treatment; format: functional, organism-based
Clostridioides difficile [16] = assay: Increase in toxin level in nonepidemic Clostridium difficile J29 infected CF1 mouse at 2 mg/day, sc for 4 days assessed after 2 days of last treatment; format: functional, organism-based
Clostridioides difficile [17] = assay: Increase in toxin level in epidemic Clostridium difficile BI9 infected CF1 mouse at 2 mg/day, sc for 4 days assessed after 2 days of last treatment; format: functional, organism-based
Clostridioides difficile [18] = assay: Increase in toxin level in epidemic Clostridium difficile BI6-8-17 infected CF1 mouse at 2 mg/day, sc for 4 days assessed after 2 days of last treatment; format: functional, organism-based
Clostridioides difficile [19] = assay: Increase in toxin level in nonepidemic Clostridium difficile ATCC 9689 infected in CF1 mouse at 1.4 mg/day, sc for 4 days assessed after 2 days of last treatment; format: functional, organism-based
Clostridioides difficile [20] = assay: Increase in toxin level in nonepidemic Clostridium difficile J29 infected CF1 mouse at 1.4 mg/day, sc for 4 days assessed after 2 days of last treatment; format: functional, organism-based
Clostridioides difficile [21] = assay: Increase in toxin level in epidemic Clostridium difficile BI9 infected CF1 mouse at 1.4 mg/day, sc for 4 days assessed after 2 days of last treatment; format: functional, organism-based
Clostridioides difficile [22] = assay: Effect on growth of nonepidemic Clostridium difficile ATCC 9689 in CF1 mouse assessed as increase in bacterial density in cecal content at 2 mg/day, sc for 4 days assessed after 2 days of last treatment; format: functional, organism-based
Clostridioides difficile [23] = assay: Effect on growth of nonepidemic Clostridium difficile J29 in CF1 mouse assessed as increase in bacterial density in cecal content at 2 mg/day, sc for 4 days assessed after 2 days of last treatment; format: functional, organism-based
Clostridioides difficile [24] = assay: Effect on growth of epidemic Clostridium difficile BI9 in CF1 mouse assessed as increase in bacterial density in cecal content at 2 mg/day, sc for 4 days assessed after 2 days of last treatment; format: functional, organism-based
Clostridioides difficile [25] = assay: Effect on growth of epidemic Clostridium difficile BI6-8-17 in CF1 mouse assessed as increase in bacterial density in cecal content at 2 mg/day, sc for 4 days assessed after 2 days of last treatment; format: functional, organism-based
Clostridioides difficile [26] = assay: Effect on growth of nonepidemic Clostridium difficile ATCC 9689 in CF1 mouse assessed as increase in bacterial density in cecal content at 1.4 mg/day, sc for 4 days assessed after 2 days of last treatment; format: functional, organism-based
Clostridioides difficile [27] = assay: Effect on growth of nonepidemic Clostridium difficile J29 in CF1 mouse assessed as increase in bacterial density in cecal content at 1.4 mg/day, sc for 4 days assessed after 2 days of last treatment; format: functional, organism-based
Clostridioides difficile [28] = assay: Effect on growth of epidemic Clostridium difficile BI9 in CF1 mouse assessed as increase in bacterial density in cecal content at 1.4 mg/day, sc for 4 days assessed after 2 days of last treatment; format: functional, organism-based
Clostridioides difficile [29] = assay: Effect on growth of epidemic Clostridium difficile BI6-8-17 in CF1 mouse assessed as increase in bacterial density in cecal content at 1.4 mg/day, sc for 4 days assessed after 2 days of last treatment; format: functional, organism-based
Clostridioides difficile [30] = assay: Inhibition of clindamycin-susceptible epidemic Clostridium difficile NAP1 in CF1 mouse at 0.2 mg/day, sc for 5 days; format: functional, organism-based
Clostridioides difficile [31] = assay: Inhibition of clindamycin-susceptible nonepidemic Clostridium difficile strain6 in CF1 mouse at 0.2 mg/day, sc for 5 days; format: functional, organism-based
Clostridioides difficile [32] = assay: Inhibition of clindamycin-susceptible epidemic Clostridium difficile NAP1 in CF1 mouse at 0.2 mg/day, sc for 5 days assessed after 2 days of last treatment; format: functional, organism-based
Clostridioides difficile [33] = assay: Inhibition of clindamycin-susceptible nonepidemic Clostridium difficile strain6 in CF1 mouse at 0.2 mg/day, sc for 5 days assessed after 2 days of last treatment; format: functional, organism-based
Clostridioides difficile [34] = assay: Effect on growth of fluoroquinolone-susceptible nonepidemic Clostridium difficile strain6 in CF1 mouse assessed as increase in bacterial density in cecal content at dosed sc for 5 days; format: functional, organism-based

C[C@H]1COc2c(N3CCN(C)CC3)c(F)cc3c(=O)c(C(=O)O)cn1c23.C[C@H]1COc2c(N3CCN(C)CC3)c(F)cc3c(=O)c(C(=O)O)cn1c23.O [LEVOFLOXACIN]
> 256 µg/mL: MIC (Clostridioides difficile [4]) | MIC (Clostridioides difficile [5])
256 µg/mL: MIC (Clostridioides difficile [2]) | MIC (Clostridioides difficile [3])
58100 ng/g: concentration at 96 h [7]
8 µg/mL: MIC (Clostridioides difficile [1]) | MIC (Clostridioides difficile [6])

COc1c(N2CCNC(C)C2)c(F)cc2c(=O)c(C(=O)O)cn(C3CC3)c12 (stereo not drawn) [GATIFLOXACIN]
256 µg/mL: MIC (Clostridioides difficile [5])
64 µg/mL: MIC (Clostridioides difficile [3])
4 µg/mL: MIC (Clostridioides difficile [6])
32 µg/mL: MIC (Clostridioides difficile [2]) | MIC (Clostridioides difficile [4])
active: Activity (Clostridioides difficile [8]) | Activity (Clostridioides difficile [9]) | Activity (Clostridioides difficile [10]) | Activity (Clostridioides difficile [11]) | Activity (Clostridioides difficile [12]) | Activity (Clostridioides difficile [14]) | Activity (Clostridioides difficile [15]) | Activity (Clostridioides difficile [16]) | Activity (Clostridioides difficile [17]) | Activity (Clostridioides difficile [18]) | Activity (Clostridioides difficile [19]) | Activity (Clostridioides difficile [20]) | Activity (Clostridioides difficile [21])
< 2 µg/mL: MIC (Clostridioides difficile [1])
76600 ng/g: concentration at 96 h [13]

CCC[C@@H]1C[C@@H](C(=O)N[C@@H]([C@H]2O[C@H](SC)[C@H](O)[C@@H](O)[C@H]2O)[C@H](C)Cl)N(C)C1 [CLINDAMYCIN]
> 256 µg/mL: MIC (Clostridioides difficile [1]) | MIC (Clostridioides difficile [2]) | MIC (Clostridioides difficile [3]) | MIC (Clostridioides difficile [4])
inactive: Activity (Clostridioides difficile [32]) | Activity (Clostridioides difficile [33])
active: Activity (Clostridioides difficile [8]) | Activity (Clostridioides difficile [9]) | Activity (Clostridioides difficile [10]) | Activity (Clostridioides difficile [11]) | Activity (Clostridioides difficile [12]) | Activity (Clostridioides difficile [22]) | Activity (Clostridioides difficile [23]) | Activity (Clostridioides difficile [24]) | Activity (Clostridioides difficile [25]) | Activity (Clostridioides difficile [26]) | Activity (Clostridioides difficile [27]) | Activity (Clostridioides difficile [28]) | Activity (Clostridioides difficile [29]) | Activity (Clostridioides difficile [15]) | Activity (Clostridioides difficile [16]) | Activity (Clostridioides difficile [17]) | Activity (Clostridioides difficile [19]) | Activity (Clostridioides difficile [20]) | Activity (Clostridioides difficile [21]) | Activity (Clostridioides difficile [30]) | Activity (Clostridioides difficile [31])
2 µg/mL: MIC (Clostridioides difficile [5]) | MIC (Clostridioides difficile [6])

CO/N=C(\C(=O)N[C@@H]1C(=O)N2C(C(=O)O)=C(CSc3nc(=O)c(O)nn3C)CS[C@H]12)c1csc(N)n1 [CEFTRIAXONE]
64 µg/mL: MIC (Clostridioides difficile [2])
active: Activity (Clostridioides difficile [8]) | Activity (Clostridioides difficile [9]) | Activity (Clostridioides difficile [10]) | Activity (Clostridioides difficile [11]) | Activity (Clostridioides difficile [12]) | Activity (Clostridioides difficile [22]) | Activity (Clostridioides difficile [23]) | Activity (Clostridioides difficile [24]) | Activity (Clostridioides difficile [25]) | Activity (Clostridioides difficile [26]) | Activity (Clostridioides difficile [27]) | Activity (Clostridioides difficile [28]) | Activity (Clostridioides difficile [29]) | Activity (Clostridioides difficile [15]) | Activity (Clostridioides difficile [16]) | Activity (Clostridioides difficile [17]) | Activity (Clostridioides difficile [18]) | Activity (Clostridioides difficile [19]) | Activity (Clostridioides difficile [20]) | Activity (Clostridioides difficile [21]) | Activity (Clostridioides difficile [34])
32 µg/mL: MIC (Clostridioides difficile [1]) | MIC (Clostridioides difficile [3]) | MIC (Clostridioides difficile [4]) | MIC (Clostridioides difficile [6])
16 µg/mL: MIC (Clostridioides difficile [5])
